One assay addresses estrogen receptor. Briefly: Scatchard analysis of ligand binding affinity on receptor-programmed reticulocyte lysate. Conditions: Scatchard analysis at receptor dilutions giving signal:noise ~10. On the procedure:
The volume of receptor-programmed reticulocyte lysate to be added to the binding assay can be determined independently from two measurements made on each batch of receptor prepared. First, Kis are determined for standard compounds using a series of dilutions of the receptor preparation. Scatchard analysis of ligand binding affinity is performed at the receptor dilutions that produced reported Kis for these compounds and an acceptable signal:noise ratio (˜10).

The conditions of assay [1]: humans, single agent therapy, circulating in the blood; Blackledge et al, Urology 1996; cited from earlier work.

In general, Kd refers to a measure of binding affinity in units of concentration. A high value points to lower affinity.

Compound `CC12CCC3c4ccc(O)cc4CCC3C1CC([125I])C2O` (stereo not drawn) [[^125I]-estradiol, [^125I]-16α-iodo-3,17β-estradiol] showed a Kd on estrogen receptor of 0.1 to 1 nM.

In the case of `CC(O)(CS(=O)(=O)c1ccc(F)cc1)C(=O)Nc1ccc(C#N)c(C(F)(F)F)c1` (stereo not drawn) [bicalutamide, 4′-cyano-α′,α′,α′-trifluoro-3-(4-fluorophenylsulphonyl)-2-hydroxy-2-methylpropiono-m-toluidide], in assay [1], the “basal level of total testosterone” value is on record as “approximate doubling”.

The values above are taken from patent US20040204390A1, “Pharmaceutical combination comprising an anti-androgen and an oestrogen receptor beta agonist” (priority 2001, published 2004).
